Measurements taken from patent US10807992B2, “Single enantiomer antiparasitic compounds” (priority 2017, dated 2020).

How the values were obtained:
[1] = test system: Ctenocephalides felis; test: In vitro ingestion activity against fleas (artificial feeding, bovine blood); details: for mortality at 0.003 ppm: Trial 3, dose 0.003 ppm; for mortality at 0.012 ppm: Trial 3, dose 0.012 ppm; for mortality at 0.049 ppm: Trial 3, dose 0.049 ppm; for mortality at 0.2 ppm: Trial 3, dose 0.20 ppm; for mortality at 0.78 ppm: Trial 3, dose 0.78 ppm; for mortality at 3.125 ppm: Trial 3, dose 3.125 ppm; for mortality at 12.5 ppm: Trial 3, dose 12.5 ppm; for mortality at 50 ppm: Trial 3, dose 50 ppm
Procedure: (§1) Ctenocephalides felis (Avista Pharma, Inc., RTP, NC), 1-7days post hatch, held in an environmental chamber at 24° C., 85% humidity.
For flea ingestion tests, serial dilutions of the compound stock were performed using DMSO to achieve the desired range for EC50 and EC90 determination. An aliquot of each compound dilution was added to organic bovine blood with a final DMSO concentration of 0.5% and placed in an artificial feeding container.
(§2) Compounds tested were C1 racemate, the C1 (R) enantiomer, and the C1 (S) enantiomer. For Trial 3, the C1 (R) enantiomer and the C1 (S) enantiomer were further chiral purified to achieve >99% purity.
(§3) For both contact and ingestion assays, ten newly emerged unfed adult fleas, 0-7 days old Ctenocephalides felis, from a laboratory colony, were aspirated into each vial or cage. The test vials for contact assays were held in an environmental chamber at 24° C., 80% humidity with light/dark cycles (12 hours each). The cages for flea ingestion assays were held in a temperature-controlled artificial feeding apparatus to allow continual access to organic bovine blood containing the desired concentration of compound. Fresh aliquots of compound-spiked bovine blood were provided daily for the duration of the study.
(§4) Fleas were evaluated for percent mortality at various time points between 2 hours and 48 hours post infestation. Fleas showing normal movement and/or jumping ability were considered viable and those showing no movement after tapping the vials were scored as dead.

[2] = test system: Ctenocephalides felis; test: In vitro contact activity against fleas (coated substrate); details: for mortality at 0.006 ppm: Trial 3, dose 0.006 ppm; for mortality at 0.024 ppm: Trial 3, dose 0.024 ppm; for mortality at 0.098 ppm: Trial 3, dose 0.098 ppm; for mortality at 0.39 ppm: Trial 3, dose 0.39 ppm; for mortality at 1.56 ppm: Trial 3, dose 1.56 ppm; for mortality at 6.25 ppm: Trial 3, dose 6.25 ppm; for mortality at 25 ppm: Trial 3, dose 25 ppm; for mortality at 100 ppm: Trial 3, dose 100 ppm
Procedure: as §1
For flea contact tests, vial caps were pre-drilled with a single hole in the center of each cap to allow air exchange. A filter paper (Whatman Grade 540 2.1 cm) was placed in the lid of each vial. Pipe cleaners cut to 0.5 inches were inserted in each test vial. An aliquot was taken from each compound stock and added to an acetone/triton solution to achieve the desired top concentrations for the study. Serial dilutions were conducted from the top dose (i.e. 100 ppm) to achieve the desired concentration for EC50 and EC90 determination. The final DMSO concentration was 0.5%. A 75 μL aliquot of each compound formulation was added to each 0.5 inch pipe cleaner contained in the treatment vial. The vials were loosely capped and allowed to dry for a minimum of four hours in a chemical fume hood.
as §2, §3, §4

## O=C(CC(F)(F)F)N1CC2(C1)OCc1cc(C3=NS[C@](c4cc(Cl)c(F)c(Cl)c4)(C(F)(F)F)C3)ccc12 [C1 (R) enantiomer, (R)-1-[6-[5-(3,5-dichloro-4-fluoro-phenyl)-5-(trifluoromethyl)-4H-isothiazol-3-yl]spiro[1H-isobenzofuran-3,3′-azetidine]-1′-yl]-3,3,3-trifluoro-propan-1-one]
[1]; 6 h, Rep1
  mortality at 0.003 ppm: 0%
  mortality at 0.012 ppm: 0%
  mortality at 0.049 ppm: 0%
  mortality at 0.2 ppm: 0%
  mortality at 0.78 ppm: 0%
  mortality at 3.125 ppm: 0%
  mortality at 12.5 ppm: 80%
  mortality at 50 ppm: 100%
[1]; 6 h, Rep2
  mortality at 0.003 ppm: 0%
  mortality at 0.012 ppm: 0%
  mortality at 0.049 ppm: 0%
  mortality at 0.2 ppm: 0%
  mortality at 0.78 ppm: 0%
  mortality at 3.125 ppm: 20%
  mortality at 12.5 ppm: 40%
  mortality at 50 ppm: 100%
[1]; 24 h, Rep1
  mortality at 0.003 ppm: 0%
  mortality at 0.012 ppm: 0%
  mortality at 0.049 ppm: 0%
  mortality at 0.2 ppm: 0%
  mortality at 0.78 ppm: 0%
  mortality at 3.125 ppm: 0%
  mortality at 12.5 ppm: 80%
  mortality at 50 ppm: 100%
[1]; 24 h, Rep2
  mortality at 0.003 ppm: 0%
  mortality at 0.012 ppm: 0%
  mortality at 0.049 ppm: 0%
  mortality at 0.2 ppm: 0%
  mortality at 0.78 ppm: 0%
  mortality at 3.125 ppm: 0%
  mortality at 12.5 ppm: 40%
  mortality at 50 ppm: 100%
[1]; 48 h, Rep1
  mortality at 0.003 ppm: 0%
  mortality at 0.012 ppm: 0%
  mortality at 0.049 ppm: 0%
  mortality at 0.2 ppm: 0%
  mortality at 0.78 ppm: 0%
  mortality at 3.125 ppm: 0%
  mortality at 12.5 ppm: 90%
  mortality at 50 ppm: 100%
[1]; 48 h, Rep2
  mortality at 0.003 ppm: 0%
  mortality at 0.012 ppm: 0%
  mortality at 0.049 ppm: 0%
  mortality at 0.2 ppm: 0%
  mortality at 0.78 ppm: 0%
  mortality at 3.125 ppm: 0%
  mortality at 12.5 ppm: 60%
  mortality at 50 ppm: 100%
[2]; 6 h, Rep1
  mortality at 0.006 ppm: 0%
  mortality at 0.024 ppm: 0%
  mortality at 0.098 ppm: 0%
  mortality at 0.39 ppm: 0%
  mortality at 1.56 ppm: 0%
  mortality at 6.25 ppm: 0%
  mortality at 25 ppm: 0%
  mortality at 100 ppm: 0%
[2]; 6 h, Rep2
  mortality at 0.006 ppm: 0%
  mortality at 0.024 ppm: 0%
  mortality at 0.098 ppm: 0%
  mortality at 0.39 ppm: 0%
  mortality at 1.56 ppm: 0%
  mortality at 6.25 ppm: 0%
  mortality at 25 ppm: 0%
  mortality at 100 ppm: 0%
[2]; 24 h, Rep1
  mortality at 0.006 ppm: 0%
  mortality at 0.024 ppm: 0%
  mortality at 0.098 ppm: 0%
  mortality at 0.39 ppm: 0%
  mortality at 1.56 ppm: 0%
  mortality at 6.25 ppm: 0%
  mortality at 25 ppm: 0%
  mortality at 100 ppm: 0%
[2]; 24 h, Rep2
  mortality at 0.006 ppm: 0%
  mortality at 0.024 ppm: 0%
  mortality at 0.098 ppm: 0%
  mortality at 0.39 ppm: 0%
  mortality at 1.56 ppm: 0%
  mortality at 6.25 ppm: 0%
  mortality at 25 ppm: 0%
  mortality at 100 ppm: 0%
[2]; 48 h, Rep1
  mortality at 0.006 ppm: 0%
  mortality at 0.024 ppm: 0%
  mortality at 0.098 ppm: 0%
  mortality at 0.39 ppm: 0%
  mortality at 1.56 ppm: 0%
  mortality at 6.25 ppm: 0%
  mortality at 25 ppm: 0%
  mortality at 100 ppm: 0%
[2]; 48 h, Rep2
  mortality at 0.006 ppm: 0%
  mortality at 0.024 ppm: 0%
  mortality at 0.098 ppm: 0%
  mortality at 0.39 ppm: 0%
  mortality at 1.56 ppm: 0%
  mortality at 6.25 ppm: 0%
  mortality at 25 ppm: 0%
  mortality at 100 ppm: 0%
